From patent US20200339691A1, “PROTEINACEOUS MOLECULES AND USES THEREFOR” (priority 2018, published 2020)
Where a SMILES comes first, the peptide text is derived from it. The star is where a group is joined. Myristoyl = CCCCCCCCCCCCCC(=O)*

Assays:
[1] = tested on: CD44^hiCD24^lo CSCs in MDA-MB-231 cells; experiment: FACS analysis of CD44^hiCD24^lo cancer stem cells in MDA-MB-231 cells treated with P1 analogues; assay type: cell-based, human; details: 50 μM peptide, 48 hours; for CD44^hiCD24^lo CSCs (%) / COI, Live Single CD44^hiCD24^lo CSCs (Cell Count): n = 1; for Average Inhibition of CSCs (%) / CD44^hiCD24^lo CSCs (%) Repeat 1 / CD44^hiCD24^lo CSCs (%) Repeat 2 / CD44^hiCD24^lo CSCs (%) Repeat 3: n = 3
Procedure: Analogues of P1 (Table 6) were designed and synthesized in accordance with the procedure of Example 5. The ability of these analogues to inhibit cancer stem cells was determined using FACS analysis on MDA-MB-231 cells, which constitutively contain approximately 90% CD44^hiCD24^lo cancer stem cells, treated with the peptides.
(§1) Non-adherent cells were removed during the washing steps.

MDA-MB-231 cells = assay type: cell-based, human; details: 50 μM peptide, 48 hours, n = 1
From the text: as §1
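For COI, Live Single Cells (Cell Count) in this document: live means Hoechst-negative events among single cells.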

| Compound | Inhibition of CSCs (%) Repeat 1 [1] [%] | Inhibition of CSCs (%) Repeat 2 [1] [%] | Inhibition of CSCs (%) Repeat 3 [1] [%] | CD44^hiCD24^lo CSCs (%) [1] [%] | COI, Live Single CD44^hiCD24^lo CSCs (Cell Count) [1] | Average Inhibition of CSCs (%) [1] [%] | CD44^hiCD24^lo CSCs (%) Repeat 1 [1] [%] | CD44^hiCD24^lo CSCs (%) Repeat 2 [1] [%] | CD44^hiCD24^lo CSCs (%) Repeat 3 [1] [%] | COI (Cell Count) (MDA-MB-231 cells) | COI, Live Single Cells (Cell Count) (MDA-MB-231 cells) | COI, Single (Cell Count) (MDA-MB-231 cells) | Total Cell Count (MDA-MB-231 cells) |
| --- | --- | --- | --- | --- | --- | --- | --- | --- | --- | --- | --- | --- | --- |
| CCCCCCCCCCCCCC(=O)N[C@@H](CC(C)C)C(=O)N[C@H](C(=O)N[C@@H](Cc1ccccc1)C(=O)N[C@@H](CCC(=O)O)C(=O)N[C@@H](Cc1ccccc1)C(=O)N[C@@H](CCCNC(=N)N)C(=O)N[C@@H](CC(C)C)C(=O)N[C@@H](CCCNC(=N)N)C(=O)N[C@@H](CCCCN)C(=O)NCC(=O)N[C@@H](CCCNC(=N)N)C(=O)N[C@@H](CCSC)C(=O)N[C@@H](CCSC)C(=O)N[C@@H](CC(=O)O)C(=O)N[C@H](C(=O)N[C@@H](CCCCN)C(=O)N[C@@H](CCCCN)C(N)=O)C(C)C)[C@@H](C)O [Peptide 2853810, Myristoyl-LTFEFRLRKGRMMDVKK-NH2] (Myristoyl-LTFEFRLRKGRMMDVKK-NH2) | 87.14 | 87.82 | 83.75 | 13.58 | 74 | 86.23 | 11.53 | 10.93 | 14.58 | 778 | 545 | 613 | 3451 |
| CCCCCCCCCCCCCC(=O)N[C@@H](CC(C)C)C(=O)N[C@H](C(=O)N[C@@H](Cc1ccccc1)C(=O)N[C@H](C(=O)N[C@@H](Cc1ccccc1)C(=O)N[C@@H](CCCNC(=N)N)C(=O)N[C@@H](CC(C)C)C(=O)N[C@@H](CCCNC(=N)N)C(=O)N[C@@H](CCCCN)C(=O)NCC(=O)N[C@@H](CCCNC(=N)N)C(=O)N[C@@H](CCSC)C(=O)N[C@@H](CCSC)C(=O)N[C@@H](CCCCN)C(=O)N[C@H](C(=O)N[C@@H](CCCCN)C(=O)N[C@@H](CCCCN)C(N)=O)C(C)C)[C@@H](C)CC)[C@@H](C)O [Peptide 2853836, Myristoyl-LTFIFRLRKGRMMKVKK-NH2] (Myristoyl-LTFIFRLRKGRMMKVKK-NH2) | 88.84 | 82.17 | 86.35 | 9.30 | 8 | 85.79 | 10.00 | 16.00 | 12.24 | 761 | 86 | 547 | 5448 |
| CCCCCCCCCCCCCC(=O)N[C@@H](CC(C)C)C(=O)N[C@H](C(=O)N[C@@H](Cc1ccccc1)C(=O)N[C@H](C(=O)N[C@@H](Cc1ccccc1)C(=O)N[C@@H](CCCNC(=N)N)C(=O)N[C@@H](CC(C)C)C(=O)N[C@@H](CCCCN)C(=O)N[C@@H](CCCCN)C(=O)NCC(=O)N[C@@H](CCCNC(=N)N)C(=O)N[C@@H](CCSC)C(=O)N[C@@H](CCSC)C(=O)N[C@@H](CC(=O)O)C(=O)N[C@H](C(=O)N[C@@H](CCCCN)C(=O)N[C@@H](CCCCN)C(N)=O)C(C)C)[C@@H](C)CC)[C@@H](C)O [Peptide 2853824, Myristoyl-LTFIFRLKKGRMMDVKK-NH2] (Myristoyl-LTFIFRLKKGRMMDVKK-NH2) | 77.86 | 79.50 | 76.91 | 16.54 | 619 | 78.09 | 19.85 | 18.39 | 20.72 | 4232 | 3743 | 3768 | 5455 |
| CCCCCCCCCCCCCC(=O)N[C@@H](CC(C)C)C(=O)N[C@H](C(=O)N[C@@H](Cc1ccccc1)C(=O)N[C@H](C(=O)N[C@@H](CC(C)C)C(=O)N[C@@H](CCCNC(=N)N)C(=O)N[C@@H](CC(C)C)C(=O)N[C@@H](CCCNC(=N)N)C(=O)N[C@@H](CCCCN)C(=O)NCC(=O)N[C@@H](CCCNC(=N)N)C(=O)N[C@@H](CCSC)C(=O)N[C@@H](CCSC)C(=O)N[C@@H](CC(=O)O)C(=O)N[C@H](C(=O)N[C@@H](CCCCN)C(=O)N[C@@H](CCCCN)C(N)=O)C(C)C)[C@@H](C)CC)[C@@H](C)O [Peptide 2853816, Myristoyl-LTFILRLRKGRMMDVKK-NH2] (Myristoyl-LTFILRLRKGRMMDVKK-NH2) | 69.57 | 68.04 | 65.42 | 12.50 | 12 | 67.68 | 27.27 | 28.67 | 31.03 | 160 | 96 | 130 | 1747 |
| CCCCCCCCCCCCCC(=O)N[C@H](C(=O)N[C@@H](Cc1ccccc1)C(=O)N[C@H](C(=O)N[C@@H](Cc1ccccc1)C(=O)N[C@@H](CCCNC(=N)N)C(=O)N[C@@H](CC(C)C)C(=O)N[C@@H](CCCNC(=N)N)C(=O)N[C@@H](CCCCN)C(=O)NCC(=O)N[C@@H](CCCNC(=N)N)C(=O)N[C@@H](CCSC)C(=O)N[C@@H](CCSC)C(=O)N[C@@H](CC(=O)O)C(=O)N[C@H](C(=O)N[C@@H](CCCCN)C(=O)N[C@@H](C)C(N)=O)C(C)C)[C@@H](C)CC)[C@@H](C)O [Peptide 2815317, Myristoyl-TFIFRLRKGRMMDVKA-NH2] (Myristoyl-TFIFRLRKGRMMDVKA-NH2) | 47.53 | 46.46 | 63.38 | 40.91 | 18 | 52.46 | 47.02 | 48.03 | 32.86 | 88 | 44 | 79 | 8821 |
| CCCCCCCCCCCCCC(=O)N[C@@H](CC(C)C)C(=O)N[C@H](C(=O)N[C@@H](Cc1ccccc1)C(=O)N[C@H](C(=O)N[C@@H](Cc1ccccc1)C(=O)N[C@@H](CCCNC(=N)N)C(=O)N[C@@H](CC(C)C)C(=O)N[C@@H](CCCNC(=N)N)C(=O)N[C@@H](CCCCN)C(=O)NCC(=O)N[C@@H](CCCNC(=N)N)C(=O)N[C@@H](CCSC)C(=O)N[C@@H](CCSC)C(=O)N[C@@H](CC(=O)O)C(=O)N[C@@H](CCC(=O)O)C(=O)N[C@@H](CCCCN)C(=O)N[C@@H](CCCCN)C(N)=O)[C@@H](C)CC)[C@@H](C)O [Peptide 2853838, Myristoyl-LTFIFRLRKGRMMDEKK-NH2] (Myristoyl-LTFIFRLRKGRMMDEKK-NH2) | 86.55 | 81.44 | 86.40 | 10.16 | 31 | 84.80 | 12.05 | 16.65 | 12.20 | 408 | 305 | 333 | 888 |
| CCCCCCCCCCCCCC(=O)N[C@H](C(=O)N[C@@H](Cc1ccccc1)C(=O)N[C@H](C(=O)N[C@@H](Cc1ccccc1)C(=O)N[C@@H](C)C(=O)N[C@@H](CC(C)C)C(=O)N[C@@H](CCCNC(=N)N)C(=O)N[C@@H](CCCCN)C(=O)NCC(=O)N[C@@H](CCCNC(=N)N)C(=O)N[C@@H](CCSC)C(=O)N[C@@H](CCSC)C(=O)N[C@@H](CC(=O)O)C(=O)N[C@H](C(=O)N[C@@H](CCCCN)C(=O)N[C@@H](CCCCN)C(N)=O)C(C)C)[C@@H](C)CC)[C@@H](C)O [Peptide 2815306, Myristoyl-TFIFALRKGRMMDVKK-NH2] (Myristoyl-TFIFALRKGRMMDVKK-NH2) | 67.33 | 69.17 | 70.79 | 27.73 | 66 | 69.09 | 29.28 | 27.66 | 26.21 | 323 | 238 | 280 | 9352 |
| CCCCCCCCCCCCCC(=O)N[C@H](C(=O)N[C@@H](Cc1ccccc1)C(=O)N[C@@H](C)C(=O)N[C@@H](Cc1ccccc1)C(=O)N[C@@H](CCCNC(=N)N)C(=O)N[C@@H](CC(C)C)C(=O)N[C@@H](CCCNC(=N)N)C(=O)N[C@@H](CCCCN)C(=O)NCC(=O)N[C@@H](CCCNC(=N)N)C(=O)N[C@@H](CCSC)C(=O)N[C@@H](CCSC)C(=O)N[C@@H](CC(=O)O)C(=O)N[C@H](C(=O)N[C@@H](CCCCN)C(=O)N[C@@H](CCCCN)C(N)=O)C(C)C)[C@@H](C)O [Peptide 2815304, Myristoyl-TFAFRLRKGRMMDVKK-NH2] (Myristoyl-TFAFRLRKGRMMDVKK-NH2) | 43.62 | 47.79 | 51.20 | 68.03 | 83 | 47.54 | 50.53 | 46.84 | 43.79 | 157 | 122 | 137 | 4317 |
